Molecular target: DNA repair nuclease/redox regulator APEX1 (Homo sapiens, UniProt P27695)
Assay: Inhibition of human APE1 after 25 mins by fluorescence assay

Chain of DNA repair nuclease/redox regulator APEX1 (P27695 whole entry): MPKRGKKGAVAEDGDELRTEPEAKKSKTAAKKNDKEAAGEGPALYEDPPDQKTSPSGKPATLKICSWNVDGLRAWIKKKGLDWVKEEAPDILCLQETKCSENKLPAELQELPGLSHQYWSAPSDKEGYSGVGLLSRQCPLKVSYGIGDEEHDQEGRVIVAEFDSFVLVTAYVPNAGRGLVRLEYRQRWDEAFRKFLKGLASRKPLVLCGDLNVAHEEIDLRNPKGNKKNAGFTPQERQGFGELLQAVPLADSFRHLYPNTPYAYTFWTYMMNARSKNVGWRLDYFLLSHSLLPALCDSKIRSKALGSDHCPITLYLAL

Row | IC50 | Structure (SMILES)
1 | 0.25 µM | Nc1c(S(=O)(=O)O)cc(Nc2ccc(Nc3nc(Cl)nc(Nc4ccc(S(=O)(=O)O)cc4)n3)c(S(=O)(=O)O)c2)c2c1C(=O)c1ccccc1C2=O
2 | 3 µM | O=C(O)c1cc2cccc([N+](=O)[O-])c2[nH]1
3 | 10 µM | O=C(O)C1=CC(=C(c2ccc(O)c(C(=O)O)c2)c2ccc(O)c(C(=O)O)c2)C=CC1=O [AURINTRICARBOXYLIC ACID]
